In this test the test system is NCI-H196 complex spheroid viability. As to the kind of experiment: Anticancer human tumor NCI-H196 cell line growth inhibition [LSD1].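 For all read-outs here: spheroids exposed to agents for 7 days before readout.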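 For viability, T/C: 100% = DMSO vehicle control viability.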 The settings on record: for viability, T/C: stronger effect = lower value. In short, it runs like this:
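Complex spheroids of tumor cells with HUVEC and human MSCs, exposed to iadademstat combined with other agents. Each agent tested in half-log steps from near clinical Cmax (else 10 microM top), DMSO ≤0.25%.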

Where [1] appears, read: curve of first compound, second compound 0.1 µM.
Where [2] appears, read: curve of first compound, second compound 0.316 µM.
Where [3] appears, read: curve of first compound, second compound 1 µM.
Setting [4] is: curve of first compound, second compound 3.16 µM.
Setting [5] is: curve of first compound, second compound 10 µM.
[6] abbreviates: second compound 0.1 µM, first compound 0.00316 µM.
Where [7] appears, read: second compound 0.1 µM, first compound 0.01 µM.
Setting [8] is: second compound 0.1 µM, first compound 0.0316 µM.
Where [9] appears, read: second compound 0.1 µM, first compound 0.1 µM.
Where [10] appears, read: second compound 0.316 µM, first compound 0.00316 µM.
[11] abbreviates: second compound 0.316 µM, first compound 0.01 µM.
[12] abbreviates: second compound 0.316 µM, first compound 0.0316 µM.
Setting [13] is: second compound 0.316 µM, first compound 0.1 µM.
[14] abbreviates: second compound 1 µM, first compound 0.00316 µM.
The mark [15] stands for this setting: second compound 1 µM, first compound 0.01 µM.
Where [16] appears, read: second compound 1 µM, first compound 0.0316 µM.
Where [17] appears, read: second compound 1 µM, first compound 0.1 µM.
[18] abbreviates: second compound 3.16 µM, first compound 0.00316 µM.
[19] abbreviates: second compound 3.16 µM, first compound 0.01 µM.
The mark [20] stands for this setting: second compound 3.16 µM, first compound 0.0316 µM.
Setting [21] is: second compound 3.16 µM, first compound 0.1 µM.
[22] abbreviates: second compound 10 µM, first compound 0.00316 µM.
Where [23] appears, read: second compound 10 µM, first compound 0.01 µM.
Where [24] appears, read: second compound 10 µM, first compound 0.0316 µM.
Setting [25] is: second compound 10 µM, first compound 0.1 µM.
[26] abbreviates: second compound 0.1 µM, first compound 0.316 µM.
Where [27] appears, read: second compound 0.1 µM, first compound 1 µM.
[28] abbreviates: second compound 0.316 µM, first compound 0.316 µM.
Setting [29] is: second compound 0.316 µM, first compound 1 µM.
The mark [30] stands for this setting: second compound 1 µM, first compound 0.316 µM.
The mark [31] stands for this setting: second compound 1 µM, first compound 1 µM.
Where [32] appears, read: second compound 3.16 µM, first compound 0.316 µM.
Setting [33] is: second compound 3.16 µM, first compound 1 µM.
Setting [34] is: second compound 10 µM, first compound 0.316 µM.
[35] abbreviates: second compound 10 µM, first compound 1 µM.

Where “and” joins values, the source holds several entries; their conditions need not be identical. Identical values can stand only once.

Drawing on PubChem BioAssay AID1918958 (Molecular Pharmacology Branch, DTP, NCI, 2023), this text covers viability, T/C and IC50 for eight molecules.

A word on the viability, T/C: it is the result in the treated group divided by that in the control group, in per cent. The IC50 is the concentration needed to halve the response being measured. On to `COc1cc(Nc2ncc3c(n2)-c2ccc(Cl)cc2C(c2c(F)cccc2OC)=NC3)ccc1C(=O)O`, for which the viability, T/C (compound 0.00316 µM) is 96.3% and 91.4%; the viability, T/C (compound 0.01 µM) was 103% and 105%; the viability, T/C (compound 0.0316 µM) was 114% and 99.4%; the viability, T/C (compound 0.1 µM) was 119% and 109%; the viability, T/C (compound 0.316 µM) was 132% and 120%; the viability, T/C (compound 1 µM) was 118% and 121%. For the same molecule, the half-maximal inhibitory concentration (IC50) (curve of compound) is greater than 1 µM.
In the case of `CC(C)c1c(-c2ccccc2)nc2c(C#N)c[nH]n2c1=O`, the viability, T/C was 107% and 96.4% (compound 0.0316 µM); 108% and 100% (compound 0.1 µM); 98.3% and 93.8% (compound 0.316 µM); 101% and 91% (compound 1 µM); 99.7% and 94.1% (compound 3.16 µM); 88.7% and 84.2% (compound 10 µM). Further, for the setting “curve of compound”, the concentration for half-maximal inhibition (IC50) is greater than 10 µM.
Take `Cn1ncnc1C1c2n[nH]c(=O)c3cc(F)cc(c23)NC1c1ccc(F)cc1` (stereo unspecified) + NC1CCC(NC2CC2c2ccccc2)CC1: the 50% inhibitory concentration (IC50) by setting is: under setting [1], greater than 0.1 µM; under setting [2], greater than 0.1 µM; under setting [3], greater than 0.1 µM; under setting [4], greater than 0.1 µM; under setting [5], greater than 0.1 µM. Besides, the viability, T/C is 93.4% (second compound 0.1 µM, first compound 0.000316 µM); 110% (second compound 0.1 µM, first compound 0.001 µM); 95.6% under setting [6]; 94.8% under setting [7]; 98.5% under setting [8]; 99.6% under setting [9]. For the same molecule, the viability, T/C (second compound 0.316 µM, first compound 0.000316 µM) is 100%; the viability, T/C (second compound 0.316 µM, first compound 0.001 µM) was 102%; the viability, T/C under setting [10] was 101%; the viability, T/C under setting [11] was 92.8%; the viability, T/C under setting [12] was 93.9%; the viability, T/C under setting [13] was 92.5%. Also, the viability, T/C runs as follows: (second compound 1 µM, first compound 0.000316 µM) 95.5%; (second compound 1 µM, first compound 0.001 µM) 98.4%; under setting [14], 97.4%; under setting [15], 98.1%; under setting [16], 94.3%; under setting [17], 94.4%. For the same molecule, the viability, T/C was 90.7% (second compound 3.16 µM, first compound 0.000316 µM); 99.8% (second compound 3.16 µM, first compound 0.001 µM); 98.3% under setting [18]; 88.8% under setting [19]; 95.9% under setting [20]; 93.9% under setting [21]. Moreover, the viability, T/C runs as follows: (second compound 10 µM, first compound 0.000316 µM) 97.2%; (second compound 10 µM, first compound 0.001 µM) 106%; under setting [22], 95.9%; under setting [23], 104%; under setting [24], 94.3%; under setting [25], 91.3%.
As to `NC1CC1c1ccc(-c2cccc(O)c2)cc1` (stereo unspecified), the viability, T/C by setting is: (compound 0.316 µM) 95.9% [middle of 25 runs]; (compound 1 µM) 97.8% [middle of 25 runs]. Under “compound alone, run of 02/21/2022”, the IC50 is greater than 10 µM.
Turning to `Nc1ccccc1NC(=O)c1ccc(CNC(=O)OCc2cccnc2)cc1`, the viability, T/C reads like this: (compound 0.00949 µM) 81.1% and 83.5%; (compound 0.03 µM) 65.5% and 73%; (compound 0.0949 µM) 42.2% and 39%; (compound 0.3 µM) 13.3% and 8.4%; (compound 0.949 µM) 0.4% and 0.47%; (compound 3 µM) 1.02% and 0.51%. Moreover, the concentration for half-maximal inhibition (IC50) (curve of compound) was 0.0632 µM and 0.0654 µM.
In the case of `CC1COCCN1c1cc(C2(S(C)(=N)=O)CC2)nc(-c2ccnc3[nH]ccc23)n1` (stereo unspecified), the viability, T/C is, setting by setting: (compound 0.0316 µM) 96.2% and 97.2%; (compound 0.1 µM) 100% and 94.8%; (compound 0.316 µM) 91.8% and 98.8%; (compound 1 µM) 84.6% and 84.2%; (compound 3.16 µM) 77.8% and 76.2%; (compound 10 µM) 72.7% and 74.6%. Also, where the note is “curve of compound”, the IC50 was greater than 10 µM.
`O=C(C=Cn1cnc(-c2cc(C(F)(F)F)cc(C(F)(F)F)c2)n1)NNc1cnccn1` + NC1CCC(NC2CC2c2ccccc2)CC1: the 50% inhibitory concentration (IC50) reads like this: under setting [1], less than 0.00316 µM; under setting [2], less than 0.00316 µM; under setting [3], less than 0.00316 µM; under setting [4], less than 0.00316 µM; under setting [5], less than 0.00316 µM. For the same molecule, the viability, T/C is 32.9% under setting [6]; 27.2% under setting [7]; 22.3% under setting [8]; 15.1% under setting [9]; 14.4% under setting [26]; 9.29% under setting [27]. The viability, T/C runs as follows: under setting [10], 31.6%; under setting [11], 25.9%; under setting [12], 19.7%; under setting [13], 14.1%; under setting [28], 14.5%; under setting [29], 10.1%. The viability, T/C under setting [14] was 38%; the viability, T/C under setting [15] is 25.1%; the viability, T/C under setting [16] is 22.3%; the viability, T/C under setting [17] is 17.1%; the viability, T/C under setting [30] was 15.7%; the viability, T/C under setting [31] is 10.4%. For the same molecule, the viability, T/C is 30.6% under setting [18]; 29.2% under setting [19]; 21.1% under setting [20]; 17.1% under setting [21]; 13.9% under setting [32]; 12.9% under setting [33]. For the same molecule, the viability, T/C under setting [22] was 38.2%; the viability, T/C under setting [23] is 25.6%; the viability, T/C under setting [24] was 16%; the viability, T/C under setting [25] was 19.1%; the viability, T/C under setting [34] was 14.5%; the viability, T/C under setting [35] was 11.9%.
Consider `CC1COCCN1c1cc(-c2ccnn2C)c2ccnc(-c3ccn[nH]3)c2n1` (stereo unspecified) + NC1CCC(NC2CC2c2ccccc2)CC1, for which the IC50 by setting is: under setting [1], 0.296 µM; under setting [2], 0.366 µM; under setting [3], 0.31 µM; under setting [4], 0.771 µM; under setting [5], 0.266 µM. Also, the viability, T/C runs as follows: under setting [6], 84.7%; under setting [7], 84.3%; under setting [8], 80%; under setting [9], 58.1%; under setting [26], 54.1%; under setting [27], 44.2%. For the same molecule, the viability, T/C reads like this: under setting [10], 81%; under setting [11], 86.4%; under setting [12], 75.2%; under setting [13], 59.8%; under setting [28], 51.7%; under setting [29], 47.1%. Further, the viability, T/C runs as follows: under setting [14], 73.6%; under setting [15], 78.7%; under setting [16], 74.2%; under setting [17], 57.7%; under setting [30], 51.8%; under setting [31], 47.6%. Moreover, the viability, T/C was 88% under setting [18]; 82.6% under setting [19]; 69.9% under setting [20]; 60.1% under setting [21]; 53.9% under setting [32]; 48.5% under setting [33]. The viability, T/C is 86.7% under setting [22]; 78.8% under setting [23]; 74.5% under setting [24]; 56.2% under setting [25]; 49% under setting [34]; 46.5% under setting [35].
